In patent US11919902B2, “Aryl-bipyridine amine derivatives as phosphatidylinositol phosphate kinase inhibitors” (HiberCell, Inc., priority 2017, dated 2024):

Tests used:
[1] = biological target: T1, PIP4K2A (full length protein, SignalChem) (Homo sapiens, UniProt P48426); experiment: Kinase Assay PIP4K2 A (Sprint); ADP-Glo biochemical assay; conditions: Table 2; compounds listed under IC50 range headings
T1 construct: 4 nM PIP4K2A (full length protein, SignalChem); purchased SignalChem
T1 sequence (P48426 1-406): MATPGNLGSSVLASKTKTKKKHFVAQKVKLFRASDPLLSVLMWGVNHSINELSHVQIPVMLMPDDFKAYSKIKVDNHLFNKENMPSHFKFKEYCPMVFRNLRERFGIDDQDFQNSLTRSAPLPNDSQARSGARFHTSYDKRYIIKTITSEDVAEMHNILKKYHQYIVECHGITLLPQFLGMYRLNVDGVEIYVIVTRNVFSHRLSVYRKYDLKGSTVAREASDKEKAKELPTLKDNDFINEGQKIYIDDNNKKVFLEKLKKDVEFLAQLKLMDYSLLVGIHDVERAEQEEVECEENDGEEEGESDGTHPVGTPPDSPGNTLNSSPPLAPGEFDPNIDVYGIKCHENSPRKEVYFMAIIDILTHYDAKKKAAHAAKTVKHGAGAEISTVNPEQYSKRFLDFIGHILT
Procedure, shortened: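 Compounds (10-point, 3-fold dilutions) were pre-incubated 15 min at RT with an enzyme/substrate mix of 4 nM full-length PIP4K2A and 100 μM PI(5)P diC8 in 20 mM MOPS pH 7.2, 25 mM MgCl2, 0.005% Tween 20. A 60 μM ATP solution was added, reaction 1 h RT; ADP read by ADP-Glo luminescence, IC50 fitted from % inhibition vs DMSO.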

GST tagged PIP4KtypeIIA = biological target: T2, GST tagged PIP4KtypeIIA (Homo sapiens, UniProt P48426); experiment: ADP-glo kinase assay PIP4K 2A (PIP4KtypeIIA inhibition assay); assay type: biochemical; conditions: Table 3; compounds listed under IC50 range headings; 10 uM ATP, 0.5 nM PIP4KIIA
T2 construct: made in house; host or cells: E. coli
T2 sequence (P48426 1-406): T1 sequence (P48426 1-406)
Procedure, shortened: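 E. coli-expressed GST-PIP4KtypeIIA (0.5 nM final) was preincubated 1 h at 27 °C with compound (up to 4.8 μM, 5% DMSO) in PI5P/DOPE lipid in 50 mM HEPES pH 7.3 with 10 mM MgCl2. The reaction was started with 10 μM ATP (final) and run 1 h. ADP was read by ADP-Glo luminescence via a calibration curve, and IC50 was taken from % residual activity.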

GST tagged PIP4KtypeIIB = biological target: T3, GST tagged PIP4KtypeIIB (Homo sapiens, UniProt P78356); experiment: Trans-FI P kinase assay PIP4K2B (PIP4KtypeIIB inhibition assay); assay type: biochemical; conditions: Table 4; compounds listed under IC50 range headings; 100 uM GTP, 5 nM PIP4KIIB; read-out: Trans-FI P kinase assays: PIP4K2B IC50
T3 construct: made in house; host or cells: E. coli
T3 sequence (P78356 1-416): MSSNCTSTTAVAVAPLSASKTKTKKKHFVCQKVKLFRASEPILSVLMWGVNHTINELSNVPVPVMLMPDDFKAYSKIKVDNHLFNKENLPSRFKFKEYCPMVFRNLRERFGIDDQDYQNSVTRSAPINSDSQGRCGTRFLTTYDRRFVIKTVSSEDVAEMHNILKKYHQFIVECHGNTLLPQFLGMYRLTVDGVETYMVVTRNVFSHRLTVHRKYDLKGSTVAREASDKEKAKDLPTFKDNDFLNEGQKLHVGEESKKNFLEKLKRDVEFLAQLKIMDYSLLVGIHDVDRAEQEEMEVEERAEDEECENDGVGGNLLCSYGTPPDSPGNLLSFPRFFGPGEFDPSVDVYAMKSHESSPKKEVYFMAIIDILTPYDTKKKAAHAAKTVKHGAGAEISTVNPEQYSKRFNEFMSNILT
Procedure, shortened: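 Purified GST-PIP4KIIB (5 nM final), 1 h preincubation with compound at 27 C, then 2 h reaction with 100 uM GTP and 80 uM PI5P plus DOPE carrier lipid in pH 7.3 HEPES/MgCl2/Triton buffer with 5% DMSO. GDP read by Transcreener FI fluorescence against a calibration curve; IC50 from % no-inhibitor activity vs log concentration.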

| IC50 [1] [nM] | IC50 (GST tagged PIP4KtypeIIA) [nM] | IC50 (GST tagged PIP4KtypeIIB) [nM] | Compound |
| --- | --- | --- | --- |
| 5 to 100 | 100 to 1000 | 10 to 100 | Cn1cc(-c2cnc(N)c(-c3ccc(N4CCCC4=O)cc3)c2)c2cc(N3CCCC3=O)cnc21 [Example 91, 1-(4-(2-amino-5-(1-methyl-5-(2-oxopyrrolidin-1-yl)-1H-pyrrolo[2,3-b]pyridin-3-yl)pyridin-3-yl)phenyl)pyrrolidin-2-one] |
| 5 to 100 | 100 to 1000 | 100 to 1000 | O=C1CCCN1c1ccc(-c2cncc(-c3c[nH]c(=O)c4[nH]ncc34)c2)cc1 [Example 74, 4-(5-(4-(2-oxopyrrolidin-1-yl)phenyl)pyridin-3-yl)-1,6-dihydro-7H-pyrazolo[3,4-c]pyridin-7-one] |
| 5 to 100 | 10 to 100 | 100 to 1000 | Nc1ncc(-c2c[nH]c3ncc(Cl)cc23)cc1-c1ccc(N2CCCC2=O)cn1 [Example 26, 1-(2′-amino-5′-(5-chloro-1H-pyrrolo[2,3-b]pyridin-3-yl)-[2,3′-bipyridin]-5-yl)pyrrolidin-2-one] |
| 100 to 1000 | 100 to 1000 | 100 to 1000 | COc1ncc(-c2cncc(-c3ccc(N4CCCC4=O)cc3)c2)c2cn(C)nc12 [Example 157, 1-[4-[5-(7-methoxy-2-methyl-pyrazolo[3,4-c]pyridin-4-yl)-3-pyridyl]phenyl]pyrrolidin-2-one] |
| 5 to 100 | 100 to 1000 | 10 to 100 | CN(C)C(=O)c1ccc(-c2cc(-c3ccnc4[nH]c(C(=O)NCc5ccncc5)cc34)cnc2N)nc1 [Example 135, 4-(2′-amino-5-(dimethylcarbamoyl)-[2,3′-bipyridin]-5′-yl)-N-(pyridin-4-ylmethyl)-1H-pyrrolo[2,3-b]pyridine-2-carboxamide] |
| 5 to 100 | 100 to 1000 | 100 to 1000 | CNC(=O)c1cc2c(-c3cncc(-c4ccc(N5CCCC5=O)cc4C)c3)ccnc2o1 [Example 170, N-methyl-4-(5-(2-methyl-4-(2-oxopyrrolidin-1-yl)phenyl)pyridin-3-yl)furo[2,3-b]pyridine-2-carboxamide] |
| 100 to 1000 | 100 to 1000 | 100 to 1000 | Cc1nc(-c2cncc(-c3ccc(N4CCCC4=O)cc3)c2)c2cn[nH]c2n1 [Example 225, 1-(4-(5-(6-methyl-2H-pyrazolo[3,4-d]pyrimidin-4-yl)pyridin-3-yl)phenyl)pyrrolidin-2-one] |
| 100 to 1000 | 1000 to 2500 | 1000 to 2500 | Cc1c(-c2ccc(N3CCCC3=O)cc2)cncc1-c1cn(C)c2ncc(C(C)(C)O)cc12 [Example 172, 1-(4-(5-(5-(2-hydroxypropan-2-yl)-1-methyl-1H-pyrrolo[2,3-b]pyridin-3-yl)-4-methylpyridin-3-yl)phenyl)pyrrolidin-2-one] |
| 5 to 100 | 100 to 1000 | 10 to 100 | CN(C)C(=O)c1cc2c(-c3cncc(-c4ccc(N5CCCC5=O)cc4)c3)ccnc2o1 [Example 50, N,N-dimethyl-4-(5-(4-(2-oxopyrrolidin-1-yl)phenyl)pyridin-3-yl)furo[2,3-b]pyridine-2-carboxamide] |
| < 5000 | > 5000 | > 5000 | CN(C)C(=O)c1ccc(-c2cncc(-c3ccncc3)c2)cc1 [Example 1, 4-([3,4′-bipyridin]-5-yl)-N,N-dimethylbenzamide] |
| 5 to 100 | 100 to 1000 | 1000 to 2500 | Cn1cc(-c2cncnc2)c2cc(-c3cncc(-c4ccc(N5CCCC5=O)cc4)c3)cnc21 [Example 176, 1-(4-(5-(1-methyl-3-(pyrimidin-5-yl)-1H-pyrrolo[2,3-b]pyridin-5-yl)pyridin-3-yl)phenyl)pyrrolidin-2-one] |
| 5 to 100 | 100 to 1000 | 10 to 100 | COCCNC(=O)c1cc2c(-c3cncc(-c4ccc(N5CCCC5=O)cc4)c3)ccnc2o1 [Example 80, N-(2-methoxyethyl)-4-(5-(4-(2-oxopyrrolidin-1-yl)phenyl)pyridin-3-yl)furo[2,3-b]pyridine-2-carboxamide] |
